Data on six molecules can be found in ChEMBL document CHEMBL1122992, “Phosphorus-nitrogen compounds. 26. Phosphaminimides. 2. 2,2'-Phosphinylidenebis(1,1,1-trimethylhydrazinium) iodide inner salts as agents affecting ganglionic transmission” (J Med Chem, 1985).

The data set concerns Rattus norvegicus. Briefly: LD50 values was measured by using probit analysis method in rats. To be noted: in vivo. It is filed as ADME, organism-based.

SMILES strings stand for the structures.

For the molecule `C[N+](C)(C)[N-]P(=O)(N[N+](C)(C)C)Oc1ccccc1.[I-]` (stereo unspecified), the LD50 stood at 15 µg/mL.

The molecule `C[N+](C)(C)NP(=O)(N[N+](C)(C)C)Oc1ccccc1.[I-].[I-]` gave an LD50 of 2.37 µg/mL.

Turning to `C[N+](C)(C)[N-]P(=O)(N[N+](C)(C)C)c1ccccc1.[I-]` (stereo unspecified), the LD50 is recorded as ~ 15 ug ml-1.

As to `C[N+](C)(C)N=P([O-])(N[N+](C)(C)C)c1ccccc1.[I-]` (stereo unspecified), the LD50 is ~ 15 ug ml-1.

As to `C[N+](C)(C)NP(=O)(N[N+](C)(C)C)c1ccccc1.[I-].[I-]`, the LD50 was determined as 2.15 µg/mL.

`C[N+](C)(C)N=P([O-])(N[N+](C)(C)C)Oc1ccccc1.[I-]` (stereo unspecified): the LD50 is ~ 15 ug ml-1.
